Drawing on patent US8394807B2, “Quinazoline inhibitors of BACE 1 and methods of using” (Purdue Research Foundation, priority 2008, dated 2013), this text covers Ki and IC50 for 40 compounds.

Each structure is given as a SMILES string.

Chain of memapsin 2 (Homo sapiens, UniProt P56817) (P56817 46-501): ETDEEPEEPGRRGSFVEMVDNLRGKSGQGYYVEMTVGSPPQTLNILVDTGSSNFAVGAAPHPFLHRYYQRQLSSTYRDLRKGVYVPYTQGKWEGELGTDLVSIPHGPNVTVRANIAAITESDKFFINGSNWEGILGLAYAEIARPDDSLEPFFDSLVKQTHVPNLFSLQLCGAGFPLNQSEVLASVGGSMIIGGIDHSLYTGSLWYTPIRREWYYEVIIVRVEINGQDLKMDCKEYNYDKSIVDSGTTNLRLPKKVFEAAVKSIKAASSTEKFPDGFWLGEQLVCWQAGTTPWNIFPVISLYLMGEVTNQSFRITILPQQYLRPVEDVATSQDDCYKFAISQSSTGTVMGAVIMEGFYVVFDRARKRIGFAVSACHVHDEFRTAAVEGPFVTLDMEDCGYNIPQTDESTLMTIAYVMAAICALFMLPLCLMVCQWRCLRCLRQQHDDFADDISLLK

The target of the first assay is memapsin 2 (Homo sapiens, UniProt P56817). Description: Inhibition of memapsin 2 catalytic activity toward fluorogenic substrate FS-2. The format is biochemical. The following applies: pH 4, 37° C., 20 minutes pre-incubation, tight-binding model; symbol outside parentheses; read-out: Activity against memapsin 2: Ki. Here is the method:
Inhibition Of Memapsin 2. […] Potency of compounds were determined by measurement of their inhibition of memapsin 2 catalytic activity toward a fluorescent substrate. […] Briefly, assays were performed at pH 4, 37° C., by pre-incubation of memapsin 2 enzyme with compound for 20 minutes. Activity measure was initiated by addition of a fluorogenic substrate FS-2 (Bachem Americas, Torrance, Calif.). Fluorescent signal increase over time was measured as a rate of hydrolysis of the peptide substrate. […]
On to `CN(C(=O)OC[C@@H](C1CCCOC1)N1Cc2cc(Oc3ccccc3)ccc2N=C1N)C1CCCCC1` (some centres unmarked) [Inhibitor 0318], for which the inhibition constant (Ki) is less than 500 nM.

Regarding `CN(C(=O)OC[C@@H](C1CCCCC1)N1Cc2cc(Oc3ccccc3)ccc2N=C1N)C1CCCCC1O` (some centres unmarked) [Inhibitor 0648], the Ki was less than 500 nM.

As for `CN(CCC[C@@H](C1CCCOC1)N1Cc2cc(Oc3ccccc3)ccc2N=C1N)C1CCCCC1` (some centres unmarked) [Inhibitor 0408], the Ki was less than 500 nM.

`Cc1nc(CN(C(=O)OC[C@@H](C2CCCCC2)N2Cc3cc(Oc4ccccc4)ccc3N=C2N)C2CCCCC2)cs1` [Inhibitor 0579]: the Ki is less than 5000 nM.

Turning to `Cc1nc(CN(CCC[C@@H](C2CCCCC2)N2Cc3cc(Oc4ccccn4)ccc3N=C2N)C2CCCCC2)cs1` [Inhibitor 1219], the Ki was less than 5000 nM.

`Cc1csc(CN(CCC[C@@H](C2CCCCC2)N2Cc3cc(Oc4ccccc4)ccc3N=C2N)C2CCCCC2)n1` [Inhibitor 409]: the Ki was less than 500 nM.

As for `CN(C(=O)OCC(C1CCOC1)N1Cc2cc(Oc3ccccc3)ccc2N=C1N)C1CCCCC1` (centres unmarked) [Inhibitor 0548], the inhibition constant Ki is less than 500 nM.

Take `NC1=Nc2ccc(Oc3ccccc3)cc2CN1[C@@H](CCCN(Cc1ccoc1)C1CCCCC1)C1CCCCC1` [Inhibitor 1379]: the Ki is less than 500 nM.

Regarding `CN(CCCC(C1CCOC1)N1Cc2cc(Oc3ccccc3)ccc2N=C1N)C1CCCCC1` (centres unmarked) [Inhibitor 0568], the inhibition constant (Ki) was less than 500 nM.

`Cc1ncoc1CN(CCC[C@@H](C1CCCCC1)N1Cc2cc(Oc3ccccc3)ccc2N=C1N)C1CCCCC1` [Inhibitor 0929]: the inhibition constant (Ki) was less than 500 nM.

Turning to `Cc1nc(C)c(CN(CCC[C@@H](C2CCCCC2)N2Cc3cc(Oc4ccccc4)ccc3N=C2N)C2CCCCC2)o1` [Inhibitor 0789], the Ki was less than 500 nM.

Regarding `Cc1nc(CN(CCC[C@@H](C2CCCCC2)N2Cc3cc(Oc4ccccc4)ccc3N=C2N)C2CCCCC2)cs1` [Inhibitor 0589], the Ki is less than 500 nM.

As to `NC1=Nc2ccc(Oc3ccccc3)cc2CN1[C@@H](CCCN(Cc1cscn1)C1CCCCC1)C1CCCCC1` [Inhibitor 0979], the Ki is less than 500 nM.

Turning to `CN(C(=O)OC[C@@H](C1CCCCC1)N1Cc2cc(Oc3ccccc3)ccc2N=C1N)C1CCCCC1` [Inhibitor 0458], the Ki was less than 50 nM.

Turning to `Cc1nc(CN(CCC[C@@H](C2CCCCC2)N2Cc3cc(Oc4ccccc4)ccc3N=C2N)C2CCCCC2)c(C)o1` [Inhibitor 0509], the inhibitory constant (Ki) was less than 500 nM.

`NC1=Nc2ccc(Oc3ccccc3)cc2CN1[C@@H](CCN(Cc1ccccc1)Cc1ccccc1)C1CCCCC1` [Inhibitor 0448]: the Ki is less than 500 nM.

On to `CN(CC[C@@H](C1CCCCC1)N1Cc2cc(Oc3ccccc3)ccc2N=C1N)Cc1ccccc1` [Inhibitor 0628], for which the Ki was less than 500 nM.

For `Cc1nc(CN(CCC[C@@H](C2CCCCC2)N2Cc3cc(Oc4cccnc4)ccc3N=C2N)C2CCCCC2)cs1` [Inhibitor 1209], the Ki was less than 5000 nM.

Regarding `NC1=Nc2ccc(Oc3ccccc3)cc2CN1[C@@H](COC(=O)NC1CCCCC1)C1CCCCC1` [Inhibitor 0658], the Ki is less than 500 nM.

As to `CN(C(=O)OC[C@@H](c1ccccc1)N1Cc2cc(Oc3ccccc3)ccc2N=C1N)C1CCCCC1` [Inhibitor 0328], the Ki was less than 5000 nM.

Take `Cc1csc(CN(C(=O)OC[C@@H](C2CCCCC2)N2Cc3cc(Oc4ccccc4)ccc3N=C2N)C2CCCCC2)n1` [Inhibitor 119]: the Ki is less than 500 nM.

Consider `CN(C)CC[C@@H](C1CCCCC1)N1Cc2cc(Oc3ccccc3)ccc2N=C1N` [Inhibitor 0618], for which the Ki was less than 5000 nM.

On to `CC(NCC[C@@H](C1CCCCC1)N1Cc2cc(Oc3ccccc3)ccc2N=C1N)c1ccccc1` (some centres unmarked) [Inhibitor 0438], for which the Ki was less than 500 nM.

For the compound `COCc1nc(CN(CCC[C@@H](C2CCCCC2)N2Cc3cc(Oc4ccccc4)ccc3N=C2N)C2CCCCC2)cs1` [Inhibitor 1099], the inhibition constant (Ki) was less than 500 nM.

Take `COCC(COC)N(C)C(=O)OC[C@@H](C1CCCCC1)N1Cc2cc(Oc3ccccc3)ccc2N=C1N` [Inhibitor 1139]: the Ki was less than 5000 nM.

For `CC(C)c1nc(CN(CCC[C@@H](C2CCCCC2)N2Cc3cc(Oc4ccccc4)ccc3N=C2N)C2CCCCC2)cs1` [Inhibitor 0659], the inhibition constant (Ki) is less than 500 nM.

Consider `COC[C@H](NC(=O)OC[C@@H](C1CCCCC1)N1Cc2cc(Oc3ccccc3)ccc2N=C1N)C(=O)OC` [Inhibitor 0989], for which the inhibition constant (Ki) is less than 500 nM.

In the case of `CN(CCC[C@@H](C1CCCCC1)N1Cc2cc(Oc3ccccc3)ccc2N=C1N)c1ccccc1` [Inhibitor 0538], the Ki is less than 500 nM.

`Cn1cc(CN(CCC[C@@H](C2CCCCC2)N2Cc3cc(Oc4ccccc4)ccc3N=C2N)C2CCCCC2)cn1` [Inhibitor 1049]: the Ki is less than 500 nM.

Consider `CN(CCC[C@@H](C1CCCCC1)N1Cc2cc(Oc3ccccc3)ccc2N=C1N)C1CCCCC1` [Inhibitor 0188], for which the Ki is less than 50 nM.

In the case of `Cc1nc(CCN(CCC[C@@H](C2CCCCC2)N2Cc3cc(Oc4ccccc4)ccc3N=C2N)C2CCCCC2)co1` [Inhibitor 0909], the Ki was less than 500 nM.

For `CN(CCC[C@@H](c1ccccc1)N1Cc2cc(Oc3ccccc3)ccc2N=C1N)C1CCCCC1` [Inhibitor 0418], the Ki was less than 5000 nM.

Turning to `NC1=Nc2ccc(Oc3ccccc3)cc2CN1[C@@H](CCCN(Cc1cn[nH]c1)C1CCCCC1)C1CCCCC1` [Inhibitor 1509], the Ki was less than 50 nM.

In the case of `Cc1nc(CCN(CCC[C@@H](C2CCCCC2)N2Cc3cc(Oc4ccccc4)ccc3N=C2N)C2CCCCC2)cs1` [Inhibitor 0809], the Ki was less than 500 nM.

For the compound `Cc1[nH]ncc1CN(CCC[C@@H](C1CCCCC1)N1Cc2cc(Oc3ccccc3)ccc2N=C1N)C1CCCCC1` [Inhibitor 1519], the Ki was less than 50 nM.

`Cc1nc(CN(C(=O)OC[C@@H](C2CCCCC2)N2Cc3cc(Oc4ccccc4)ccc3N=C2N)C2CCCCC2)co1` [Inhibitor 0519]: the Ki is less than 5000 nM.

In the case of `NC1=Nc2ccc(Oc3ccccc3)cc2CN1[C@@H](CCNCC1CCCCC1)C1CCCCC1` [Inhibitor 0428], the Ki was less than 500 nM.

Take `NC1=Nc2ccc(Oc3ccccc3)cc2CN1[C@@H](COC(=O)NC1CCCCC1O)C1CCCCC1` (some centres unmarked) [Inhibitor 0668]: the inhibition constant Ki was less than 500 nM.

With `COC[C@@H](NC(=O)OC[C@@H](C1CCCCC1)N1Cc2cc(Oc3ccccc3)ccc2N=C1N)C(=O)OC` [Inhibitor 0469], the Ki was less than 500 nM.

As to `Cc1nc(CN(C(=O)OC[C@@H](C2CCCCC2)N2Cc3cc(Oc4ccccc4)ccc3N=C2N)C2CCCCC2)c(C)o1` [Inhibitor 908], the Ki was less than 500 nM.

For another assay, the target named is T1, memapsin 2 (Cricetulus griseus, UniProt G3IAK4).
T1 construct: endogenous in cells; host or cells: Chinese hamster ovary cells over-expressing human APP695 (London and Swedish mutations)
T1 sequence (G3IAK4 22-501): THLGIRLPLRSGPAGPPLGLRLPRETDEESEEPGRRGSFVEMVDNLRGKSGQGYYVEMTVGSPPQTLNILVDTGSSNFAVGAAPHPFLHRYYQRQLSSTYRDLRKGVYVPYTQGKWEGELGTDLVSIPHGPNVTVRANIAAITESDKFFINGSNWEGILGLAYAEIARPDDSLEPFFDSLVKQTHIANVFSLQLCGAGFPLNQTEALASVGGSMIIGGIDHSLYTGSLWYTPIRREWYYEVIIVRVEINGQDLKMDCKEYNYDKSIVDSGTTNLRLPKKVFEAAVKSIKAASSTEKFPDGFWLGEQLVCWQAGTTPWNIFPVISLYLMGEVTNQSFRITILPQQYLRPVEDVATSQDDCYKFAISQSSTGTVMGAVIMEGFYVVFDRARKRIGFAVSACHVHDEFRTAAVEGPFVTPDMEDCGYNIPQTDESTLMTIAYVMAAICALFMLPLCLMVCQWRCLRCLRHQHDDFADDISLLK
In words: Cellular Aβ IC50 determination (Aβ40 sandwich ELISA). In kind it is cell-based. The following applies: symbol in parentheses; Chinese hamster ovary cells over-expressing human APP695 (London and Swedish mutations), Aβ40, 24 h; read-out: Activity against memapsin 2: (IC50). Here is the method: Cellular Aβ C50 Determinations. The potency of compounds against memapsin 2 catalytic activity is determined in a cellular assay of Aβ production. […] Chinese hamster ovary cells that over-express human APP695 with the London and Swedish mutations are seeded in multi-well plates at 10% confluency. Compounds are dissolved in DMSO to concentrations near 1 mM, and diluted into culture media to a final concentration near 4 μM (final 0.4% DMSO). Compounds are diluted serially and applied to cells in multi-well plates 48 h after seeding. Incubation is continued in 5% CO2 at 37 degrees C. for 24 h. Aliquots are removed and assayed for Aβ40 content using a sandwich ELISA (BioSource International). Amount of Aβ40 over the range of concentration of compounds, relative to control incubations, are fit to a 4-parameter IC50 model.
In the case of `CN(C(=O)OC[C@@H](C1CCCOC1)N1Cc2cc(Oc3ccccc3)ccc2N=C1N)C1CCCCC1` (some centres unmarked) [Inhibitor 0318], the IC50 is less than 5000 nM.

In the case of `CN(C(=O)OCC(C1CCOC1)N1Cc2cc(Oc3ccccc3)ccc2N=C1N)C1CCCCC1` (centres unmarked) [Inhibitor 0548], the IC50 was less than 5000 nM.

On to `CN(C(=O)OC[C@@H](C1CCCCC1)N1Cc2cc(Oc3ccccc3)ccc2N=C1N)C1CCCCC1` [Inhibitor 0458], for which the IC50 was greater than 5000 nM.

Take `NC1=Nc2ccc(Oc3ccccc3)cc2CN1[C@@H](CCN(Cc1ccccc1)Cc1ccccc1)C1CCCCC1` [Inhibitor 0448]: the IC50 is less than 5000 nM.

As for `CN(C(=O)OC[C@@H](c1ccccc1)N1Cc2cc(Oc3ccccc3)ccc2N=C1N)C1CCCCC1` [Inhibitor 0328], the IC50 is less than 5000 nM.

For `CN(CCC[C@@H](C1CCCCC1)N1Cc2cc(Oc3ccccc3)ccc2N=C1N)C1CCCCC1` [Inhibitor 0188], the IC50 is less than 50 nM.

`CN(CCC[C@@H](c1ccccc1)N1Cc2cc(Oc3ccccc3)ccc2N=C1N)C1CCCCC1` [Inhibitor 0418]: the IC50 was less than 5000 nM.
